From patent publication US20240252472A1, “COMBINATIONS FOR TREATING CANCER” (Purdue Pharma L.P., priority 2023, published 2024)

Tests used:
[1] = system: CD38; assay: CD38 expression on primary myeloma cells from patients ex vivo, flow cytometry; type: cell-based, human; settings: 2.5 μM, 48 hours; 3 out of 11 patients (low basal expression); not observed with high basal CD38
Experimental: For surface staining, cells were incubated with the appropriate antibodies and 7AAD (Immunostep) for 15 min in the dark. Data were acquired using a FACSCalibur cytometer (BD Biosciences) and analyzed using Infinicyt™ software (Cytognos). Specifically, the expression of CD38 or ligands for NK cell activating receptors (MICA, MICB, ULBP1-3, PVR and CD112) in MM cell lines was determined on the viable cell population (7AAD-). In primary myeloma cells, the expression of CD38 was analyzed over the viable myeloma population using the panel CD138-FITC/CD56-PE/7AAD/CD38-APC, whereas MICA/B-AF488/CD56-PE/7AAD/CD38-APC panel was used to determine MICA/B expression. Normalized median fluorescence intensity (MFI) was calculated by dividing median fluorescence obtained with the specific antibody by median fluorescence of the corresponding isotype control. MFI for each treatment was expressed as a percentage relative to the control (100%, cells cultured in media with DMSO).
CD38 expression was further examined by flow cytometry in malignant plasma cells from ex vivo cultures of 11 MM patients' bone marrow samples treated with tinostamustine (2.5 μM) for 48 hours.

[2] = system: MM cells (MOLP-8); assay: Daratumumab-mediated ADCP, macrophage/myeloma co-culture; type: cell-based, human; settings: MM cells pre-treated 2.5 μM 48 hours; macrophages 3:1, daratumumab 4 hours; vs not pre-treated
Experimental: Mononuclear cells were isolated from buffy coats from healthy donors using density gradient centrifugation with Ficoll and subsequently CD14+ monocytes were magnetically isolated in an autoMACS® Pro Separator. Monocytes were cultured for 7 days in the presence of GM-CSF (10 ng/mL) to induce differentiation to macrophages. For the evaluation of ADCP, myeloma cells were either untreated or pre-treated with 2.5 μM EDO-S101 for 48 hours. Cells were washed to remove EDO-S101 from the culture medium, and untreated and pre-treated myeloma cells were stained with PKH26. Co-cultures of macrophages and myeloma cells^PKH26+ (ratio 3:1) were incubated with different concentrations of daratumumab or the corresponding isotype control for 4 hours at 37° C. ADCP was evaluated by flow cytometry with the panel: CD11b-FITC/PKH26/CD138-APC. […]
ADCP was quantified as the percentage of double positive events using the following formula: […]
‘Treatment double positive cells’ refers to the proportion of macrophages (as a percentage) determined to have phacocytosed MM cells in co-cultures treated with daratumumab. ‘Control double positive cells’ refers to the proportion of macrophages (as a percentage) determined to have phacocytosed MM cells in co-cultures that were ED-S101 untreated or pre-treated but not treated with daratumumab.
Elimination of myeloma cells was calculated using the following formula: […]

[3] = system: MM1S-luc derived tumors; assay: Disseminated human myeloma model, CB17-SCID mice; type: in vivo; settings: EDO-S101 15 mg/kg i.v. weekly, daratumumab 8 mg/kg i.p. weekly, 4 weeks; vehicle 33 days
Experimental: MM1S-luc cells (3×10^6) were injected intravenously (i.v.) into CB17-SCID mice which were determined to have normal NK cells, monocytes and granulocytes (The Jackson Laboratory, Bar Harbor, ME, USA). Tumor development was monitored by non-invasive bioluminescence imaging (BLI) with a Xenogen IVIS 50 system (Caliper Life Sciences, Hopkinton, MA, USA). Mice were randomized into four groups (n=5/group): one receiving vehicle (i.v., weekly), another group receiving EDO-S101 (15 mg/kg i.v., weekly on Tuesdays), another group receiving daratumumab (8 mg/kg i.p., weekly on Wednesdays) and the last group receiving the double combination of EDO-S101+daratumumab. Both drugs were administered over a period of 4 weeks.
CB17-SCID mice bearing MM1S-luc derived tumors were treated with EDO-S101, daratumumab, a combination thereof, or vehicle, in accordance with the methods outlined above. MM1S-Luc cells (3×10^6) were intravenously injected into CB17-SCID mice. After 2 weeks, mice were randomized into four groups: one receiving vehicle (i.v., weekly), another group receiving EDO-S101 (15 mg/kg i.v., weekly on Tuesdays), another group receiving daratumumab (8 mg/kg i.p., weekly on Wednesdays) and the last group received the double combination of EDO-S101+daratumumab. Survival of mice analyzed with a Kaplan-Meier curve. Both drugs were administered over a period of 4 weeks.

[4] = system: subcutaneous plasmacytoma derived from MM1.S cells; assay: Second subcutaneous plasmacytoma model, CB17-SCID mice; type: in vivo; settings: EDO-S101 30 mg/kg i.v. weekly, daratumumab 8 mg/kg i.p. weekly, 4 weeks; vehicle 34 days
Text: For the second subcutaneous human plasmacytoma model, CB17-SCID mice (The Jackson Laboratory) were used. CB17-SCID mice were randomised into groups (n=5). The design of the experiment (treatment doses and time schedule) was identical to the experiment described above with NSG mice except for the inoculation of NK cells, since CB17-SCID mice have their own functional NK cells.
For the second subcutaneous human plasmacytoma model, CB17-SCID mice (20 female mice, 5-6 weeks old; from The Jackson Laboratory) were used. The design of the experiment (treatment doses and time schedule) was identical to the one performed with NSG mice except for the inoculation of human NK cells, since CB17-SCID mice hold their own functional NK cells (Dorshkind et al., J Immunol 134:3798-3801, 1985).
In the second xenograft plasmacytoma model, CB17-SCID mice bearing a subcutaneous plasmacytoma derived from MM1.S cells were randomized to receive vehicle, daratumumab, EDO-S101 or the double combination. Mice were treated with EDO-S101 on Mondays and daratumumab was administered on Tuesdays. […] Furthermore, statistical differences in survival were also found between the combination vs vehicle (58 days±2.739 vs 34 days±2.191 days, respectively; p=0.003).

For `Cn1c(CCCCCCC(=O)NO)nc2cc(N(CCCl)CCCl)ccc21` [EDO-S101, 7-(5-(bis(2-chloroethyl)amino)-1-methyl-1H-benzo[d]imidazol-2-yl)-N-hydroxyheptanamide], the “CD38 expression in primary myeloma cells” value [1] was “slightly increased”, the “ADCP: percentage of double positive events (macrophages that have phagocytosed myeloma cells)” value [2] was “increased” and the “ADCP: percentage of eliminated MM cells” value [2] was “decreased”. For the same compound, the median survival [3] was 45 days and the overall median survival [4] was 51 days.
